Data as given in the NIST ThermoML archive (doi:10.1016/j.jct.2014.01.030).

Assay: xn = mol fraction of the nth substance listed
Conditions: 101 kPa, Liquid; for speed of sound: Sing-around technique in a fixed-path interferometer; for mass density: Vibrating tube method

CCn1cc[n+](C)c1.COS(=O)(=O)[O-] [1-ethyl-3-methylimidazolium methylsulfate] + CC(C)O
Conditions | mass density, 288.15 K [kg/m3] | mass density, 298.15 K [kg/m3] | mass density, 308.15 K [kg/m3] | speed of sound, 288.15 K [m/s] | speed of sound, 298.15 K [m/s] | speed of sound, 308.15 K [m/s]
x2 = 0 | 1287.57 | 1280.81 | 1273.97 | 1781 | 1756 | 1732
x2 = 0.049 | 1277.61 | 1270.72 | 1263.87 | 1766 | 1741 | 1717
x2 = 0.101 | 1266.36 | 1259.44 | 1252.56 | 1749 | 1724 | 1700
x2 = 0.205 | 1240.88 | 1233.92 | 1227.01 | 1708 | 1683 | 1658
x2 = 0.307 | 1212.09 | 1205.09 | 1198.13 | 1659 | 1634 | 1609
x2 = 0.388 | 1185.23 | 1178.18 | 1171.15 | 1614 | 1588 | 1564
x2 = 0.505 | 1140.35 | 1133.21 | 1126.08 | 1541 | 1515 | 1490
x2 = 0.611 | 1091.15 | 1083.89 | 1076.62 | 1469 | 1443 | 1416
x2 = 0.705 | 1039.05 | 1031.61 | 1024.15 | 1402 | 1375 | 1348
x2 = 0.805 | 972.17 | 964.55 | 956.84 | 1326 | 1298 | 1269
x2 = 0.902 | 891.92 | 884.06 | 876.06 | 1252 | 1221 | 1190
x2 = 0.953 | 842.51 | 834.48 | 826.24 | 1214 | 1181 | 1148
